Experimental data reported in patent US20060063759A1, “Tricyclic steroid hormone nuclear receptor modulators” (priority 2002, published 2006).
Read-outs that look alike come from different tables or passages of the source.

Legend:
human MR = biological target: T1, human MR (Homo sapiens, UniProt P08235); experiment: Mineralocorticoid Receptor Binding Assay ([3H]-aldosterone)
T1 construct: The full length human MR gene is cloned from a human kidney or human brain cDNA library; His tag from the pAcHLT vector (own knowledge); made in house; host or cells: Sf9 insect cells (baculovirus, pAcHLT transfer vector)
T1 sequence (P08235 1-984): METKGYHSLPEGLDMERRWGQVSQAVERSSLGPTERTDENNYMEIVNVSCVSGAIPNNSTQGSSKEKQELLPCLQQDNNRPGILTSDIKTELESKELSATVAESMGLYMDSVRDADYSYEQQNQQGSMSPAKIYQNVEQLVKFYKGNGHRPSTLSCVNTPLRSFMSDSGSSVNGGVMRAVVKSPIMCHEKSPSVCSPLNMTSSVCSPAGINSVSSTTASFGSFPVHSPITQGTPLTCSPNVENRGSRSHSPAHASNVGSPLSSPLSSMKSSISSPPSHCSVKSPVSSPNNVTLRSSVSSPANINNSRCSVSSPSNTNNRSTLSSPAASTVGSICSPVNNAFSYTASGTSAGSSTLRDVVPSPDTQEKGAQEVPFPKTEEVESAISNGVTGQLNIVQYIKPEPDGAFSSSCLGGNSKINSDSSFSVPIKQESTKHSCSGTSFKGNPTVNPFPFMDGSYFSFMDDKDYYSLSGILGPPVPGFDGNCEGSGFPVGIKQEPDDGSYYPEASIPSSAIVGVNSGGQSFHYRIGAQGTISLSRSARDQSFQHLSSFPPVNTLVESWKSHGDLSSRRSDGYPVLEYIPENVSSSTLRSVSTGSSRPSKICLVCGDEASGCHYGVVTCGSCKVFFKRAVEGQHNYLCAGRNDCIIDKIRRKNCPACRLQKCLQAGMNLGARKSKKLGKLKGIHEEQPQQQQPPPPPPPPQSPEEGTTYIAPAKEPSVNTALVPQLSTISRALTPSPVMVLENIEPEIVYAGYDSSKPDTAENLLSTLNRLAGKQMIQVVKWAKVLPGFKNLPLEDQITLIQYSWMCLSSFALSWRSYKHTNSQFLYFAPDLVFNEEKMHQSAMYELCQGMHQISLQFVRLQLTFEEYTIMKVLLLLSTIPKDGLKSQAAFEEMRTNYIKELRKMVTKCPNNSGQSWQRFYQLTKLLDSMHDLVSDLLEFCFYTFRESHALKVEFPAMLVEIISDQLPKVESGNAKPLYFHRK
Procedure: (§1) All ligands, radioligands, solvents, and reagents employed in the binding assays are readily available from commercial sources, or can be readily synthesized by the ordinarily skilled artisan.
The full length human MR gene is cloned from a human kidney or human brain cDNA library. […] The PCR reaction is performed in a final volume of 50 μl containing about 1 μl of a 50× stock solution of polymerase; about 1 μl of a 50× stock solution of dNTP; about 5 μl of an appropriate PCR buffer; about 1 μl of each primer; about […] of a H. kidney or H. brain cDNA library; and about 36 μl of water. The reaction is allowed to denature for about 30 seconds at 95 degrees Celsius, anneal for about 30 seconds at 55 degrees Celsius, and extend for about 5 minutes at 72 degrees Celsius, the sequence being repeated for a total of about 35 cycles. […] To extract the cDNA product from the agarose gel, the QIAEX II Gel Extraction protocol (QIAGEN, Inc.) is employed according to the manufacturer's instructions. Following extraction, the MR cDNA is cloned into an appropriate cloning vector (Zero Blunt TOPO PCR Cloning Kit Invitrogen, Inc.) and a pAcHLT-baculovinis transfer vector (B.D./Pharminogen), then expressed in SF9 insect cells, essentially according to manufacturer's instructions. Sf9 cells are grown at a scale where gram quantity cell pellets are obtained for subsequent use in the MR binding assay. Harvested cell pellets are lysed by repeated freeze-thaw cycles (about 4) in a suitable lysis buffer then centrifuged at about 1×10^3 G (with the supernatant being saved for future assays).
MR binding assays are performed in a final total volume of about 250 μl containing about 20-25 μg of protein and 0.5 nM of [^3H]-aldosterone plus varying concentrations of test compound or vehicle. The assay binding buffer consists of 30 mM sodium molybdate, 30 mM of TRIS-HCl, 5 mM sodium phosphate, 5 mM sodium pyrophosphate, and about 10% glycerol, pH=7.5.
Incubations are carried out at 4 degrees Celsius with shaking for about 16 hours. 200 μl aliquots of each incubation are filtered onto Millipore HA 0.45 micron 96-well filter plates, pre-moistened with cold 30 mM TRIS-HCl. The filter plates are suctioned dry with vacuum and immediately washed 3× with cold 30 mM TRIS-HCl. The plates are then punched out and the amount of receptor-ligand complex is determined by liquid scintillation counting using 4 ml of Ready Protein Plus™ liquid scintillation cocktail.
IC50 values (defined as the concentration of test compound required to decrease [^3H]-aldosterone binding by 50%/o) are then determined.

glucocorticoid receptor = biological target: T2, glucocorticoid receptor (Homo sapiens, UniProt P04150); experiment: Glucocorticoid Receptor Binding Assay ([3H]-dexamethasone, A549 cell extract); details: [3H]-dexamethasone binding, read-out: GR Ki
T2 construct: containing 50-200 ug of A549 cell extract and 1.86 nM [^3H]-dexamethasone; host or cells: A549 human lung epithelial cells (sonicated cell extract)
T2 sequence (P04150 1-777): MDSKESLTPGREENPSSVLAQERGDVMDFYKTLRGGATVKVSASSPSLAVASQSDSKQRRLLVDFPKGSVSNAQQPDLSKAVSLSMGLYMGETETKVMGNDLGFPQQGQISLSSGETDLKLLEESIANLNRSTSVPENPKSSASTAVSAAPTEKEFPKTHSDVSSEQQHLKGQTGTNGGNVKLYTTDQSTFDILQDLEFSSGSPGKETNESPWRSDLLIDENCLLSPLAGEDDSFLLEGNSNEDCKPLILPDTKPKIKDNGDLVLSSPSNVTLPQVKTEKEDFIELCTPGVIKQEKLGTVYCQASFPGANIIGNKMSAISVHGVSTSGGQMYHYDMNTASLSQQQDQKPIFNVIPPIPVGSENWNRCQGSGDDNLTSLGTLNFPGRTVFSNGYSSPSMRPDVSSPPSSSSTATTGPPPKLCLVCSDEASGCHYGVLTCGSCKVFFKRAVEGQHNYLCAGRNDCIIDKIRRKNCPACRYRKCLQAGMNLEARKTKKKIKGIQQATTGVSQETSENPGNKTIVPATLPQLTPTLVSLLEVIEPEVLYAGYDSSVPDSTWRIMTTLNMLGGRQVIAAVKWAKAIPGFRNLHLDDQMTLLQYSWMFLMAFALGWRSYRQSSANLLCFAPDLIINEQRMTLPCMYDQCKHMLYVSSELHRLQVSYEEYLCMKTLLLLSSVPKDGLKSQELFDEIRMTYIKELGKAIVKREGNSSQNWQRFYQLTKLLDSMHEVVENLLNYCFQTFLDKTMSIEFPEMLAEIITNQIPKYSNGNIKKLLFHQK
Procedure: as §1
A549 human lung epithelial cells (ATCC) are grown at a scale where gram quantity cell pellets are obtained. Harvested cell pellets are washed twice in cold phosphate buffered saline, centrifuged, and resuspended in cold assay binding buffer. The assay binding buffer consists of 10% glycerol, 50 mM Tris-HCl (pH7.2), 75 mM sodium chloride, 1.5 mM magnesium chloride, 1.5 mM EDTA, and 10 mM sodium molybdate. Cell suspensions were lysed via sonication, centrifuged, and the “extract” supernatant is snap frozen and stored at −80 C until needed.
GR binding assays are performed in a final volume of 140 ul containing 50-200 ug of A549 cell extract and 1.86 nM [^3H]-dexamethasone (Amersham) plus varying concentrations of test compound or vehicle. Briefly, assays are prepared at RT in 96-well Fisher 3356 plates, each well containing 100 ul of A549 cell extract, 20 ul of [^3H]-dexamethasone, and 20 ul of test compound/vehicle. Incubations are carried out at 4 degrees Celsius for 16 hours. After incubation, 70 ul of 3× dextran-coated charcoal solution is added to each reaction, mixed, and incubated for 8 minutes at RT. 3×-dextran-coated charcoal solution consists of 250 ml assay binding buffer, 3.75 g Norit A charcoal (Sigma), and 1.25 g dextran T-70 (Amersham). Charcoal/unbound radioligand complexes are removed by centrifugation of the plate and 140 ul of supernatant from each well is transferred to another 96 well Optiplate (Packard Instruments). 200 ul of Microscint-20 scinillant (Packard Instruments) is added to each well and amount of receptor bound radioligand is determined using Packard Instruments TopCount instrument.

[1] = [3H]-aldosterone binding, human MR expressed in Sf9 cells, read-out: MR Ki

SMILES | Ki (human MR; [1]) [nM] | Ki (glucocorticoid receptor) [nM] | Ki (human MR) [nM]
CS(=O)(=O)Nc1cccc(C=C2c3ccccc3CCc3cc(O)ccc32)c1 (mixture of isomers) [Example 162, N-[3-(2-Hydroxy-10,11-dihydro-dibenzo[a,d]cyclohepten-5-ylidenemethyl)-phenyl]-methanesulfonamide] | < 500 | < 500 | –
CCS(=O)(=O)Nc1cccc(C=C2c3ccccc3CCc3cc(OC)ccc32)c1 (mixture of isomers) [Example 163, Ethanesulfonic acid [3-(2-methoxy-10,11-dihydro-dibenzo[a,d]cyclohepten-5-ylidenemethyl)-phenyl]-amide] | < 500 | < 500 | –
COc1ccc2c(c1)CCc1ccccc1C2=Cc1ccc(N)cc1 (mixture of isomers) [Example 166, 4-(2-Methoxy-10,11-dihydro-dibenzo[a,d]cyclohepten-5-ylidenemethyl)-phenylamine] | < 500 | < 10000 | –
COc1ccc2c(c1)CCc1ccccc1C2=Cc1cccc(O)c1 (mixture of isomers) [Example 167, 3-(2-Methoxy-10,11-dihydro-dibenzo[a,d]cyclohepten-5-ylidenemethyl)-phenol] | < 500 | < 500 | –
COc1ccc2c(c1)CCc1ccccc1C2=Cc1ccc(O)cc1 (mixture of isomers) [Example 168, 4-(2-Methoxy-10,11-dihydro-dibenzo[a,d]cyclohepten-5-ylidenemethyl)-phenol] | – | < 1000 | < 500
CS(=O)(=O)Nc1cccc(C=C2c3ccccc3CCc3cc(O)c(O)cc32)c1 (mixture of isomers) [Example 171, N-[3-(2,3-Dihydroxy-10,11-dihydro-dibenzo[a,d]cyclohepten-5-ylidenemethyl)-phenyl]-methanesulfonamide] | < 500 | < 500 | –
CCS(=O)(=O)Nc1cccc(C=C2c3ccccc3CCc3c(Cl)cccc32)c1 (mixture of isomers) [Example 208(a), Ethanesulfonic acid [3-(1-chloro-10,11-dihydro-dibenzo[a,d]cyclohepten-5-ylidenemethyl)-phenyl]-amide] | < 500 | < 500 | –
Oc1ccc(C=C2c3ccccc3CCc3c(Cl)cccc32)cc1 (mixture of isomers) [Example 212, 4-(1-Chloro-10,11-dihydro-dibenzo[a,d]cyclohepten-5-ylidenemethyl)-phenol] | < 500 | < 1000 | –
Oc1cccc(C=C2c3ccccc3CCc3ccc(F)cc32)c1 (mixture of isomers) [Example 215, 3-(3-Fluoro-10,11-dihydro-dibenzo[a,d]cyclohepten-5-ylidenemethyl)-phenol] | < 500 | < 500 | –
Nc1cccc(C=C2c3ccccc3CCc3cc(Cl)ccc32)c1 (mixture of isomers) [Example 289, 3-(2-Chloro-10,11-dihydro-dibenzo[a,d]cyclohepten-5-ylidenemethyl)-phenylamine] | < 500 | < 1000 | –

Continued, in another order:

Ki (human MR; [1]) [nM] | Ki (glucocorticoid receptor) [nM] | SMILES | Ki (human MR) [nM]
< 500 | < 500 | Oc1ccc(C=C2c3ccccc3CCc3cc(O)ccc32)cc1 (mixture of isomers) [Example 169, 5-(4-Hydroxy-benzylidene)-10,11-dihydro-5H-dibenzo[a,d]cyclohepten-2-ol] | –
< 500 | < 500 | CS(=O)(=O)Nc1cccc(C=C2c3ccccc3CCc3c(Cl)cccc32)c1 (mixture of isomers) [Example 205(a), N-[3-(1-Chloro-10,11-dihydro-dibenzo[a,d]cyclohepten-5-ylidenemethyl)-phenyl]-methanesulfonamide] | –
< 500 | < 1000 | CS(=O)(=O)Nc1ccc(C=C2c3ccccc3CCc3c(Cl)cccc32)cc1 (mixture of isomers) [Example 210, N-[4-(1-Chloro-10,11-dihydro-dibenzo[a,d]cyclohepten-5ylidenemethyl)-phenyl]-methanesulfonamide] | –
< 500 | < 500 | CS(=O)(=O)Nc1cccc(C=C2c3ccccc3CCc3ccc(F)cc32)c1 (mixture of isomers) [Example 214, N-[3-(3-Fluoro-10,11-dihydro-dibenzo[a,d]cyclohepten-5-ylidenemethyl)-phenyl]-methanesulfonamide] | –
< 500 | < 10000 | O=C1Nc2ccccc2C(=Cc2cccc(Cl)c2)c2ccccc21 (mixture of isomers) [Example 649] | –
